Laboratory results published in PMC7232442, “Biofilm Eradication by Symmetrical Selenoesters for Food-Borne Pathogens” (Microorganisms, 2020).
Converted amounts (≈) assume the structure as drawn. “Also recorded” adds a separate entry of the source.

Experiments:
[1] = tested on: MRC-5 human embryonal lung fibroblast cells; assay: Cytotoxicity assay (MTT); format: cell-based; conditions: MRC-5 cells
Protocol: The adherent MRC-5 human embryonal lung fibroblast cells were cultured in 96-well flat-bottomed microtiter plates, using EMEM supplemented with 10% heat-inactivated fetal bovine serum. The density of the cells was adjusted to 1 × 10^4 cells in 100 μL per well, the cells were seeded overnight at 37 °C, 5% CO2, then the medium was removed from the plates containing the cells, and the dilutions of selenocompounds previously made in a separate plate were added to the cells in 200 μL.
The culture plates were incubated at 37 °C for 24 h; at the end of the incubation period, 20 μL of MTT (thiazolyl blue tetrazolium bromide, Sigma) solution (from a stock solution of 5 mg/mL) was added to each well. After incubation at 37 °C for 4 h, 100 μL of sodium dodecyl sulfate (SDS; Sigma) solution (10% in 0.01 M HCI) was added to each well and the plates were further incubated at 37 °C overnight. Cell growth was determined by measuring the optical density (OD) at 540/630 nm with Multiscan EX ELISA reader (Thermo Labsystems, Cheshire, WA, USA). Inhibition of the cell growth was determined according to the formula below:IC50 = 100 − [(ODsample − ODmedium control)/(ODcell control − ODmedium control)] × 100(1)
Results are expressed in terms of IC50, defined as the inhibitory dose that reduces the growth of the cells exposed to the tested compounds by 50%.

[2] = tested on: S. aureus MRSA 272123; assay: Real-time ethidium bromide accumulation assay; format: cell-based, Staphylococcus aureus; conditions: for Relative Fluorescence Index (RFI): S. aureus MRSA 272123, ½ MIC, minute 60; for EPI activity (in words): resistant S. aureus MRSA, 60 min
Protocol: (§1) The impact of compounds on EB accumulation was determined by the automated EB method using a CLARIOstar Plus plate reader (BMG Labtech, UK). Firstly, the bacterial strain was incubated until it reached an optical density (OD) of 0.6 at 600 nm. The culture was washed with phosphate buffered saline (PBS; pH 7.4) and centrifuged at 13,000× g for 3 min, the cell pellet was re-suspended in PBS. The compounds were added at ½ MIC concentration to PBS containing a non-toxic concentration of EB (1 µg/mL). Then, 50 μL of the EB solution containing the compound were transferred into 96-well black microtiter plate (Greiner Bio-One Hungary Kft, Hungary), and 50 μL of bacterial suspension (OD600 0.6) were added to the each well. Then, the plates were placed into the CLARIOstar plate reader, and the fluorescence was monitored at excitation and emission wavelengths of 530 nm and 600 nm every minute for one hour on a real-time basis. From the real-time data, the activity of the compounds, namely the relative fluorescence index (RFI) of the last time point (minute 60) of the EB accumulation assay, was calculated according to the following formula:RFI = (RFtreated − RFuntreated)/RFuntreated(2) where RFtreated is the relative fluorescence (RF) at the last time point of EB retention curve in the presence of an inhibitor, and RFuntreated is the RF at the last time point of the EB retention curve of the untreated control having the solvent control (DMSO).

[3] = tested on: S. Typhimurium SE02 ΔacrB; assay: MIC determination by microdilution method; format: cell-based, Salmonella enterica serovar Typhimurium; conditions: Salmonella enterica
Protocol: (§2) The minimum inhibitory concentrations (MICs) of compounds were determined according to the Clinical and Laboratory Standard Institute guidelines (CLSI). MIC values of the compounds were determined by visual inspection. The solvent was also assayed to ensure there was no antibacterial effect and the concentration (1 v/v%) applied in the assays had no antibacterial activity. DMSO was used at subinhibitory concentration (1 v/v%) in the assays.

[4] = tested on: S. Typhimurium SE01 Wild-Type; assay: MIC determination by microdilution method; format: cell-based, Salmonella enterica serovar Typhimurium; conditions: Salmonella enterica; S. Typhimurium SE01 wild-type; read-out: MIC
Protocol: as §2

[5] = tested on: S. Typhimurium SE03 ΔacrA; assay: MIC determination by microdilution method; format: cell-based, Salmonella enterica serovar Typhimurium; conditions: Salmonella enterica
Protocol: as §2

[6] = tested on: S. Typhimurium SE39 ΔtolC; assay: MIC determination by microdilution method; format: cell-based, Salmonella enterica serovar Typhimurium; conditions: Salmonella enterica
Protocol: as §2

[7] = tested on: Staphylococcus aureus ATCC 25923; assay: MIC determination by microdilution method; format: cell-based; conditions: S. aureus ATCC 25923
Protocol: as §2

[8] = tested on: S. aureus MRSA 272123; assay: MIC determination by microdilution method; format: cell-based; conditions: Staphylococcus aureus; S. aureus MRSA 272123; read-out: MIC
Protocol: as §2

[9] = tested on: S. aureus ATCC 25923; assay: Real-time ethidium bromide accumulation assay; format: cell-based, Staphylococcus aureus; set-up: key to Relative Fluorescence Index (RFI): RFI = (RFtreated − RFuntreated)/RFuntreated at minute 60; conditions: for Relative Fluorescence Index (RFI): S. aureus ATCC 25923, ½ MIC, minute 60; for EPI activity (in words): reference (sensitive) S. aureus, 60 min
Protocol: as §1

[10] = tested on: S. Typhimurium SE02 ΔacrB; assay: Real-time ethidium bromide accumulation assay; format: cell-based, Salmonella enterica serovar Typhimurium; conditions: S. Typhimurium SE02 ΔacrB; ½ MIC; minute 60
Protocol: as §1

[11] = tested on: S. Typhimurium SE01 Wild-Type; assay: Real-time ethidium bromide accumulation assay; format: cell-based, Salmonella enterica serovar Typhimurium; conditions: ½ MIC, minute 60
Protocol: as §1

[12] = tested on: C. violaceum 026 sensor strain with AHL producer E. cloacae 31298 (violacein production); assay: Quorum sensing (QS) inhibition, parallel inoculation disk diffusion; format: cell-based, Chromobacterium violaceum; conditions: disc with 10 μL compound, starting concentration ½ MIC; 24–48 h
Protocol: The QS inhibitory effect of selenocompounds was examined on the AHL producer E. cloacae strain and C. violaceum sensor bacterial strain. These strains were inoculated in parallel. The QS inhibition was monitored by agar diffusion method on LB* agar plate as described previously. Filter paper discs (7.0 mm in diameter) were placed between the parallel inoculated strains and impregnated with 10 μL compounds. Starting concentration of the compounds was ½ MIC. The agar plates were incubated at room temperature (20 °C) for 24–48 h and the inhibition of violacein production was measured.

[13] = tested on: S. Typhimurium SE03 ΔacrA; assay: Real-time ethidium bromide accumulation assay; format: cell-based, Salmonella enterica serovar Typhimurium; conditions: S. Typhimurium SE03 ΔacrA; ½ MIC; minute 60
Protocol: as §1

[14] = tested on: S. Typhimurium SE39 ΔtolC; assay: Real-time ethidium bromide accumulation assay; format: cell-based, Salmonella enterica serovar Typhimurium; conditions: S. Typhimurium SE39 ΔtolC; ½ MIC; minute 60
Protocol: as §1

[15] = tested on: S. aureus ATCC 25923; assay: Resistance modulation assay (checkerboard) with TET or CIP; format: cell-based, Staphylococcus aureus
Protocol: (§3) The resistance modulation effect of compounds with ciprofloxacin (CIP) and tetracycline (TET) antibiotics were evaluated by the checkerboard method on S. aureus strains. Briefly, CIP or TET was diluted in a 96-well microtiter plate by two-fold serial dilution in MH broth and then the compounds were added at subinhibitory concentrations (½ MIC). In this assay, only the tested compounds with well-defined MIC values were tested. Finally, 10^−4 dilution of the overnight bacterial culture in MH was added to each well. The final volume was 200 µL in each well. The microtiter plates were incubated at 37 °C for 18 h. MIC values in the presence of the antibiotics alone and in combination with Se-compounds were determined by visual inspection.

[16] = tested on: S. aureus MRSA 272123; assay: as above; format: cell-based, Staphylococcus aureus; conditions: for Interaction with CIP: MRSA strain; for X-fold reduction of MIC of CIP: S. aureus MRSA 272123, compound at ½ MIC, with CIP
Protocol: as §3

[17] = tested on: S. aureus MRSA; assay: Biofilm formation using crystal violet; format: cell-based, Staphylococcus aureus
Protocol: (§4) The anti-biofilm effect of the tested compounds against S. aureus strains and wild-type S. Typhimurium SE01 was measured using crystal violet (CV; 0.1% (v/v)). This dye is used to detect the total biofilm biomass formed. Overnight cultures were diluted to OD of 0.1 at 600 nm in TSB medium. Then, the bacterial cultures were added to 96-well microtiter plates and the compounds were added at ½ MIC concentration. The final volume was 200 μL in each well. The microtiter plates were incubated at 30 °C for 48 h with gentle agitation (100 rpm). After the incubation period, TSB medium was discarded, and the plates were washed with tap water to remove unattached cells. Then 200 μL crystal violet was added to the wells and incubated for 15 min at room temperature. Then, CV was removed from the wells and the plates were washed again with tap water, and 200 μL of 70% ethanol was added to the wells. Finally, the biofilm formation was determined by measuring the OD at 600 nm using Multiscan EX ELISA plate reader (Thermo Labsystems, Cheshire, WA, USA). The anti-biofilm effect of compounds was expressed in the percentage (%) of decrease in biofilm formation.

[18] = tested on: reference S. aureus strain (ATCC 25923); assay: Biofilm formation using crystal violet; format: cell-based, Staphylococcus aureus
Protocol: as §4

[19] = Staphylococcus aureus, ATCC25923

| Compound | IC50 ([1]; Homo sapiens, MRC5, 24 h) | IC50 ([1]; 24 h) | Relative Fluorescence Index (RFI) [2] | EPI activity (in words) [2] | MIC [3] | MIC [4] | MIC [5] | MIC [6] | MIC [7] | MIC [7, 19] | MIC [8] | Relative Fluorescence Index (RFI) [9] | EPI activity (in words) [9] | Relative Fluorescence Index (RFI) [10] | Relative Fluorescence Index (RFI) [11] | QS zone of inhibition [12] | Relative Fluorescence Index (RFI) [13] | Relative Fluorescence Index (RFI) [14] | Interaction with CIP [16] | X-fold reduction of MIC of CIP [16] | other results |
| --- | --- | --- | --- | --- | --- | --- | --- | --- | --- | --- | --- | --- | --- | --- | --- | --- | --- | --- | --- | --- | --- |
| COC(=O)C[Se]C(=O)c1ccc(C(=O)[Se]CC(=O)OC)cc1 [Se-E1] | > 75 µM | 77.9 µM | 0.19 | effective | > 100 µM | > 100 µM | > 100 µM | > 100 µM | 12.5 µM (≈ 5.45 µg/mL) | 12.5 µM (≈ 5.45 µg/mL) | 100 µM (≈ 43.6 µg/mL) | 0.98 | effective | −0.03 | −0.10 | 41 mm | 0.03 | 0.15 |  |  |  |
| COC(=O)C[Se]C(=O)c1cc(C(=O)[Se]CC(=O)OC)cc(C(=O)[Se]CC(=O)OC)c1 [Se-E3] | > 75 µM | 76.6 µM | 0.47 | most prominent EPI activity; also recorded: significantly effective pump inhibition | > 100 µM | > 100 µM | > 100 µM | > 100 µM | 12.5 µM (≈ 7.69 µg/mL) | 12.5 µM (≈ 7.69 µg/mL) | 100 µM (≈ 61.5 µg/mL) | 4.15 | most prominent EPI activity; also recorded: significantly effective pump inhibition | 0.08 | 0.26 |  | 0.27 | 0.25 | synergism | 2 fold | X-fold reduction of MIC of TET ([15]; S. aureus ATCC 25923, compound at ½ MIC, with TET): 2 fold; Interaction with TET ([15]; methicillin-susceptible S. aureus ATCC 25923): synergism; Anti-biofilm effect (in words) [17]: significant biofilm inhibition; Anti-biofilm effect (in words) ([18]; sensitive (reference) S. aureus): significant biofilm inhibition |
| CC(=O)C[Se]C(=O)c1ccc(C(=O)[Se]CC(C)=O)cc1 [Se-K1] | 0.54 µM |  | −0.15 |  |  | 50 µM (≈ 20.2 µg/mL) |  |  | 0.39 µM (≈ 0.158 µg/mL) | 0.39 µM (≈ 0.158 µg/mL) | 1.56 µM (≈ 0.631 µg/mL) | 0.1 |  | 0.10 | −0.16 | 37 mm | 0.17 | 0.27 | synergism | 2 fold |  |
| CC(=O)C[Se]C(=O)c1cccc(C(=O)[Se]CC(C)=O)c1 [Se-K2] | 1.34 µM |  | −0.07 |  |  | 50 µM (≈ 20.2 µg/mL) |  | 100 µM (≈ 40.4 µg/mL) | 0.39 µM (≈ 0.158 µg/mL) | 0.39 µM (≈ 0.158 µg/mL) | 1.56 µM (≈ 0.631 µg/mL) | 0.11 |  | 0.13 | −0.04 | 40 mm | 0.20 | 0.26 |  |  | Anti-biofilm effect (in words) [17]: promoted the biofilm formation; Biofilm inhibition ([18]; reference S. aureus, ½ MIC, 48 h): 30.3% |
